Source: patent US12527772B2, “Pharmaceutical combination comprising ponesimod” (Vanda Pharmaceuticals Inc., priority 2017, dated 2026)

Tests used:
Assay type in all cases: in vivo
[1] = combination efficacy experiment, acute monophasic rat EAE model: body weight; conditions: ponesimod 30 mg/kg q.d. from day 0; over the 21 days study
Experimental: Groups of 10 rats are dosed orally starting at the day of disease induction (day 0) with different doses of teriflunomide in the range between 1 and 10 mg/kg once daily (q.d.) or with 30 mg/kg ponesimod q.d. Clinical scores are assessed on a daily basis and disease development is compared between vehicle-treated rats and rats receiving teriflunomide or ponesimod (vehicle: 0.5% Methylcellulose/0.5% Tween® 80/water). In parallel, body weights of the rats are monitored on a daily basis to follow general health. Hematology parameters, including lymphocyte counts, are measured at 3 different time points: 6 and 24 hours after the oral gavage at day 20 and at the termination of the experiment at day 21, 3 hours post dosing. Plasma samples can be taken for compound concentration determination and for the measurement of protein markers. The combination efficacy experiment is performed in the same rat EAE model as described for the first pilot experiment. It consists of four treatment groups: • 1. Vehicle (0.5% Methylcellulose/0.5% Tween® 80/water) q.d., from day 0 • 2. Teriflunomide (1 mg/kg) q.d., from day 0 • 3. Ponesimod (30 mg/kg) q.d., from day 0 • 4. Teriflunomide (1 mg/kg) q.d., from day 0+ponesimod (30 mg/kg) q.d., from day 0 In life and termination endpoints are the same as described for the first pilot experiment. […]

lymphocytes = experiment: first pilot experiment, rat EAE model: hematology, lymphocyte counts; conditions: ponesimod 30 mg/kg oral q.d.; over 24 hours
Experimental: (§1) Groups of 10 rats are dosed orally starting at the day of disease induction (day 0) with different doses of teriflunomide in the range between 1 and 10 mg/kg once daily (q.d.) or with 30 mg/kg ponesimod q.d. Clinical scores are assessed on a daily basis and disease development is compared between vehicle-treated rats and rats receiving teriflunomide or ponesimod (vehicle: 0.5% Methylcellulose/0.5% Tween® 80/water). In parallel, body weights of the rats are monitored on a daily basis to follow general health. Hematology parameters, including lymphocyte counts, are measured at 3 different time points: 6 and 24 hours after the oral gavage at day 20 and at the termination of the experiment at day 21, 3 hours post dosing. Plasma samples can be taken for compound concentration determination and for the measurement of protein markers. Based on the first pilot experiment described above one dose of teriflunomide is selected for the combination efficacy experiment.

[2] = test system: acute monophasic rat EAE model; experiment: combination efficacy experiment, acute monophasic rat EAE model: clinical scores; conditions: for efficacy on the clinical course of EAE (average clinical score, FIG. 1): each compound alone, ponesimod 30 mg/kg q.d., teriflunomide 1 mg/kg q.d., from day 0, 21 days study; for severity of the disease (maximal clinical score reached over the 21 days study, FIG. 2): ponesimod 30 mg/kg q.d. and/or teriflunomide 1 mg/kg q.d. from day 0
Experimental: Female Lewis rats are immunized with an emulsion of myelin basic protein (MBP) from Guinea pig in complete Freund's adjuvant. A total of 200 micrograms of MBP is injected per rat at two sites subcutaneously (right paw and base of tail). Within 10 days the rats develop signs of paralysis which will be graded on a scale from 0 to 15 assessing the tail and each limb individually according to the method originally described by Weaver A. et al., FASEB J., 2005, 19(12): 1668-1670. The disease takes an acute monophasic course and is self-remitting. Usually by day 21 clinical scores reach values below 3.0.
as §1, with “markers.” for “markers. Based on the first pilot experiment described above one dose of teriflunomide is selected for the combination efficacy experiment.”
The combination efficacy experiment is performed in the same rat EAE model as described for the first pilot experiment. It consists of four treatment groups: • 1. Vehicle (0.5% Methylcellulose/0.5% Tween® 80/water) q.d., from day 0 • 2. Teriflunomide (1 mg/kg) q.d., from day 0 • 3. Ponesimod (30 mg/kg) q.d., from day 0 • 4. Teriflunomide (1 mg/kg) q.d., from day 0+ponesimod (30 mg/kg) q.d., from day 0
In life and termination endpoints are the same as described for the first pilot experiment.
Data collected in the pilot experiment are similar to those obtained in the combination study and therefore are used to increase the monotherapy groups size in order to increase sensitivity as described by Bate S. et al., PLoS One., 2014, 9(12): e114872. […] When combined, the two compounds benefit from each other.

[3] = test system: acute monophasic models of experimental autoimmune encephalomyelitis (EAE); experiment: first pilot experiment, acute monophasic rat EAE model: clinical scores; conditions: female Lewis rats, teriflunomide 1 mg/kg oral q.d. from day 0
Experimental: The efficacy of teriflunomide and ponesimod in acute monophasic models of experimental autoimmune encephalomyelitis (EAE) can be determined in a pilot experiment. Female Lewis rats are immunized with an emulsion of myelin basic protein (MBP) from Guinea pig in complete Freund's adjuvant. A total of 200 micrograms of MBP is injected per rat at two sites subcutaneously (right paw and base of tail). Within 10 days the rats develop signs of paralysis which will be graded on a scale from 0 to 15 assessing the tail and each limb individually according to the method originally described by Weaver A. et al., FASEB J., 2005, 19(12): 1668-1670. The disease takes an acute monophasic course and is self-remitting. Usually by day 21 clinical scores reach values below 3.0. Groups of 10 rats are dosed orally starting at the day of disease induction (day 0) with different doses of teriflunomide in the range between 1 and 10 mg/kg once daily (q.d.) or with 30 mg/kg ponesimod q.d. Clinical scores are assessed on a daily basis and disease development is compared between vehicle-treated rats and rats receiving teriflunomide or ponesimod (vehicle: 0.5% Methylcellulose/0.5% Tween® 80/water). In parallel, body weights of the rats are monitored on a daily basis to follow general health. Hematology parameters, including lymphocyte counts, are measured at 3 different time points: 6 and 24 hours after the oral gavage at day 20 and at the termination of the experiment at day 21, 3 hours post dosing. Plasma samples can be taken for compound concentration determination and for the measurement of protein markers. Based on the first pilot experiment described above one dose of teriflunomide is selected for the combination efficacy experiment.

[4] = teriflunomide alone 1 mg/kg q.d. from day 0

Row | Compound | body weight loss (FIG. 3 and FIG. 4) [1] | reduction of lymphocytes (lymphocytes) | efficacy on the clinical course of EAE (average clinical score, FIG. 1) [2] | severity of the disease (maximal clinical score reached over the 21 days study, FIG. 2) [2] | effect on clinical score during the ascending phase (FIG. 1) ([2]; ponesimod 30 mg/kg q.d. from day 0) | disease onset [3] | efficacy on EAE scores [3] | severity of the disease [3] | disease onset (FIG. 1) [2, 4] | efficacy on EAE scores (FIG. 1 and FIG. 2) [2, 4]
1 | CCC/N=C1\S/C(=C\c2ccc(OC[C@H](O)CO)c(Cl)c2)C(=O)N1c1ccccc1C [ponesimod, (R)-5-[3-chloro-4-(2,3-dihydroxy-propoxy)-benz[Z]ylidene]-2-([Z]-propylimino)-3-o-tolyl-thiazolidin-4-one] | reduction in body weight loss | partial reduction of lymphocytes | moderate efficacy | no effect | moderate effect | – | – | – | – | –
2 | C/C(O)=C(\C#N)C(=O)Nc1ccc(C(F)(F)F)cc1 [teriflunomide, (Z)-2-cyano-3-hydroxy-but-2-enoic acid-(4-trifluoromethylphenyl)-amide] | – | – | moderate efficacy | no effect | – | strong delay of disease onset | partial efficacy | without affecting the severity of the disease | strong delay of disease onset | partial efficacy
